According to patent US20150337013A1, “NOVEL ANTIBACTERIAL AGENTS FOR THE TREATMENT OF GRAM POSITIVE INFECTIONS” (priority 2008, published 2015):
“And” between values parts separate entries of the source, which are not always exact repeats. Equal entries are not always repeated. Where two headings read alike, the source gives them in different places.

Columns and labels:
[1] = system: C. difficile spores (ATCC #43596); assay: Hamster C. difficile infection (CDAD) protection model; format: in vivo, Syrian golden hamsters; details: oral 0.5 mg/kg once daily for 5 days (MET 70 mg/kg three times daily for 5 days)
Experimental: Syrian golden hamsters were pretreated with 10 mg/kg clindamycin subcutaneously 24 hours before bacterial challenge. An inoculum of 20 C. difficile spores (ATCC #43596) in sterile saline was administered orally. Treatment was initiated 4 hours post-inoculation with dH2O, metronidazole (MET), vancomycin (VAN), or a compound of the present invention. Oral dosing regimens for VAN and compounds of Formula I were 0.5 mg/kg once daily for 5 days. MET was administered at 70 mg/kg three times daily for 5 days. CDAD was confirmed as the cause of death by observations at necropsy, including wet tail and/or macroscopic cecal alterations. The % protection provided by each therapy tested was calculated at 1 and 21 days post-dosing.

[2] = system: gram positive bacteria; assay: Antimicrobial activity against a panel of organisms, summary statements; format: cell-based; details: statement in words
Experimental: (§1) Compounds according to Formula I were tested for antimicrobial activity against a panel of organisms. Aerobic organisms, Staphylococcus aureus, Enterococcus faecalis and E. faecium, were tested by broth microdilution according to Clinical and Laboratory Standards Institute (CLSI) document M7-A7 (Clinical and Laboratory Standards Institute. Methods for Dilution Antimicrobial Susceptibility Tests for Bacteria that Grow Aerobically; Approved Standard—Seventh Edition. CLSI document M7-A7 [ISBN 1-56238-587-9]. Clinical and Laboratory Standards Institute, 940 West Valley Road, Suite 1400, Wayne, Pa. 19087-1898 USA, 2006) with modifications as described below. Mueller Hinton Broth (MHBc) was supplemented with 50 mg/L calcium (equivalent to human physiological levels of calcium) and assay plates were incubated 18-20 hours at 37° C. with aeration (200 rpm).
(§2) In all cases the final concentration of dimethyl sulfoxide incubated with cells is less than or equal to 1%. For minimum inhibitory concentration (MIC) calculations, 2-fold dilutions of compounds were added to wells of a microtiter plate containing 5×10^5 bacteria in a final volume of 100 μL of media. Following incubation, (18-20 hours at 37° C. with aeration at 200 rpm) growth was confirmed visually by placing plates over a viewing apparatus (stand with a mirror underneath) and then the optical density (OD600) was measured using a SpectraMax 340PC^384 plate reader. Growth was defined as turbidity that could be detected with the naked eye or achieving minimum OD600of 0.1. MIC values (in μg/mL) were defined as the lowest concentration producing no visible turbidity.

[3] = system: daptomycin resistant Staph. aureus (DRSA), daptomycin resistant E. faecium (DREfm) and daptomycin resistance E. faecalis (DREfs); assay: Activity against daptomycin resistant bacteria, summary statement; format: cell-based; details: statement in words
Experimental: as §1, §2

[4] = system: Clostridium difficile
[5] = system: Enterococcus faecium EFM.384, Daptomycin resistant mutant (14-A); format: cell-based; details: MHBc with 50 mg/L calcium, 18-20 hours at 37° C.
Outline: (§3)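 MIC in μg/mL, taken as the lowest compound concentration producing no visible turbidity after 18-20 hours at 37° C with shaking at 200 rpm. Organisms were grown in calcium-supplemented (50 mg/L) Mueller Hinton broth at 5×10^5 bacteria per well.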

[6] = system: Enterococcus faecalis EFS.312, Daptomycin resistant mutant (EFA); format: cell-based; details: MHBc with 50 mg/L calcium, 18-20 hours at 37° C.
Outline: as §3

[7] = system: Enterococcus faecalis EFS.201 (ATCC 49452); format: cell-based
Outline: as §3

[8] = system: Staphylococcus aureus SAU.278, Daptomycin resistant mutant (D10); format: cell-based; details: MHBc with 50 mg/L calcium, 18-20 hours at 37° C.
Outline: as §3

[9] = system: Staphylococcus aureus SAU.399 (ATCC 43300), Methicillin and Oxacillin Resistant; format: cell-based
Outline: as §3

[10] = system: Enterococcus faecium EFM.14 (ATCC 6569); format: cell-based
Outline: as §3

[11] = system: Staphylococcus aureus SAU.42 (ATCC 29213); format: cell-based; details: MHBc with 50 mg/L calcium, 18-20 hours at 37° C.
Outline: as §3

[12] = MHBc with 50 mg/L calcium, 18-20 hours at 37° C.

Compound	Mean % Protection 1 Day Post Dosing [1]	Mean % Protection 21 Days Post Dosing [1]	as active or more active than daptomycin [2]	useful against daptomycin resistant strains of bacteria [3]	C. diff MIC90 [4]	more active against bacteria than daptomycin [2]	Efm384 MIC [5]	Efs312 MIC [6]	Efs201 MIC ([7]; ATCC 49452)	Sa278 MIC [8]	Sa399 MIC ([9]; ATCC 43300)	Efm14 MIC ([10]; ATCC 6569)	Sa42 MIC [11]	Efs201 MIC [7, 12]	Sa399 MIC [9, 12]	Efm14 MIC [10, 12]
CCCCCC12CCC(C(=O)N[C@@H](Cc3c[nH]c4ccccc34)C(=O)N[C@H](CC(N)=O)C(=O)N[C@@H](CC(=O)O)C(=O)N[C@@H]3C(=O)NCC(=O)N[C@@H](CCCN)C(=O)N[C@@H](CC(=O)O)C(=O)N[C@H](C)C(=O)N[C@@H](CC(=O)O)C(=O)NCC(=O)N[C@H](CO)C(=O)N[C@@H]([C@H](C)CC(=O)O)C(=O)N[C@@H](CC(=O)c4ccccc4N)C(=O)O[C@@H]3C)(CC1)CC2 [Compound 22, N-(4-pentylbicyclo[2.2.2]octane-1-carbonyl)-L-tryptophyl-D-asparaginyl-L-α-aspartyl-L-threonylglycyl-L-ornithyl-L-α-aspartyl-D-alanyl-L-α-aspartylglycyl-D-seryl-(3R)-3-methyl-L-α-glutamyl-(αS)-α,2-diamino-γ-oxobenzenebutanoic acid (13→4)-lactone]	85%	38%	as active or more active than daptomycin	useful against daptomycin resistant strains of bacteria	1 µg/mL	–	–	–	–	–	–	–	–	–	–	–
CCCCCCCCc1ccc(C(=O)N[C@@H](Cc2c[nH]c3ccccc23)C(=O)N[C@H](CC(N)=O)C(=O)N[C@@H](CC(=O)O)C(=O)N[C@@H]2C(=O)NCC(=O)N[C@@H](CCCN)C(=O)N[C@@H](CC(=O)O)C(=O)N[C@H](C)C(=O)N[C@@H](CC(=O)O)C(=O)NCC(=O)N[C@H](CO)C(=O)N[C@@H]([C@H](C)CC(=O)O)C(=O)N[C@@H](CC(=O)c3ccccc3N)C(=O)O[C@@H]2C)cc1 [Compound 34, N-(4-octylbenzoyl)-L-tryptophyl-D-asparaginyl-L-α-aspartyl-L-threonylglycyl-L-ornithyl-L-α-aspartyl-D-alanyl-L-α-aspartylglycyl-D-seryl-(3R)-3-methyl-L-α-glutamyl-(αS)-α,2-diamino-γ-oxobenzenebutanoic acid (13→4)-lactone]	85%	38%	as active or more active than daptomycin	useful against daptomycin resistant strains of bacteria	1 µg/mL	more effective than daptomycin	2 µg/mL and 4 µg/mL	4 µg/mL and 8 µg/mL	–	–	–	–	–	–	–	–
CCCCCCc1ccc(/C(C)=C/C(=O)N[C@@H](Cc2c[nH]c3ccccc23)C(=O)N[C@H](CC(N)=O)C(=O)N[C@@H](CC(=O)O)C(=O)N[C@@H]2C(=O)NCC(=O)N[C@@H](CCCN)C(=O)N[C@@H](CC(=O)O)C(=O)N[C@H](C)C(=O)N[C@@H](CC(=O)O)C(=O)NCC(=O)N[C@H](CO)C(=O)N[C@@H]([C@H](C)CC(=O)O)C(=O)N[C@@H](CC(=O)c3ccccc3N)C(=O)O[C@@H]2C)cc1 [Compound 50, N-{1-[(E)-3-(4-hexylphenyl)but-2-enoyl]}-L-tryptophyl-D-asparaginyl-L-α-aspartyl-L-threonylglycyl-L-ornithyl-L-α-aspartyl-D-alanyl-L-α-aspartylglycyl-D-seryl-(3R)-3-methyl-L-α-glutamyl-(αS)-α,2-diamino-γ-oxobenzenebutanoic acid (13→4)-lactone]	–	–	as active or more active than daptomycin	useful against daptomycin resistant strains of bacteria	0.5 µg/mL	more effective than daptomycin	4 µg/mL	4 µg/mL	0.25 µg/mL	1 µg/mL	0.5 µg/mL	1 µg/mL	–	–	–	–
CCCCCCC1CCC(c2ccc(C(=O)N[C@@H](Cc3c[nH]c4ccccc34)C(=O)N[C@H](CC(N)=O)C(=O)N[C@@H](CC(=O)O)C(=O)N[C@@H]3C(=O)NCC(=O)N[C@@H](CCCN)C(=O)N[C@@H](CC(=O)O)C(=O)N[C@H](C)C(=O)N[C@@H](CC(=O)O)C(=O)NCC(=O)N[C@H](CO)C(=O)N[C@@H]([C@H](C)CC(=O)O)C(=O)N[C@@H](CC(=O)c4ccccc4N)C(=O)O[C@@H]3C)cc2)CC1 (stereo partly drawn) [Compound 54, N-[4-(−4-hexylcyclohexyl)benzoyl]-L-tryptophyl-D-asparaginyl-L-α-aspartyl-L-threonylglycyl-L-ornithyl-L-α-aspartyl-D-alanyl-L-α-aspartylglycyl-D-seryl-(3R)-3-methyl-L-α-glutamyl-(αS)-α,2-diamino-γ-oxobenzenebutanoic acid (13→4)-lactone]	0%	0%	as active or more active than daptomycin	useful against daptomycin resistant strains of bacteria	–	more effective than daptomycin	–	–	–	–	–	–	–	–	–	–
CCCCCCCCCCOc1ccc(C(=O)N[C@@H](Cc2c[nH]c3ccccc23)C(=O)N[C@H](CC(N)=O)C(=O)N[C@@H](CC(=O)O)C(=O)N[C@@H]2C(=O)NCC(=O)N[C@@H](CCCN)C(=O)N[C@@H](CC(=O)O)C(=O)N[C@H](C)C(=O)N[C@@H](CC(=O)O)C(=O)NCC(=O)N[C@H](CO)C(=O)N[C@@H]([C@H](C)CC(=O)O)C(=O)N[C@@H](CC(=O)c3ccccc3N)C(=O)O[C@@H]2C)cc1 [Compound 38]	–	–	as active or more active than daptomycin	useful against daptomycin resistant strains of bacteria	1 µg/mL	more effective than daptomycin	1 µg/mL	0.5 µg/mL	–	0.50 µg/mL	–	–	0.25 µg/mL	0.5 µg/mL	0.5 µg/mL	0.5 µg/mL
